Data from patent US20230190761A1, “METHYLENE BLUE STABILIZED MRNA COMPOSITIONS” (ModernaTX, Inc., priority 2020, published 2023).
Structures can show the parent of a compound that is named as a salt.

Tests used:
Format in all cases: physicochemical
[1] = tested on: mRNA within LNP formulations; experiment: Screen of molecular dyes on mRNA stability within LNP formulations (RP-HPLC); settings: for Main Peak Purity after 4 days at 40° C. (%): 2 mM dye in mRNA-LNP, RP-HPLC, no value (—) = physically unstable, no reliable chromatographic result, interpreted as destabilizing; for Difference relative to No Dye: main peak purity, ±4% interpreted as significant; for Difference relative to No Dye / stabilization effect on mRNA in LNP: 2 mM dye, 4 days at 40° C.
Experimental: This example discusses the effects of various dye molecules on mRNA stability within LNP formulations. To evaluate the potential stabilization effects of dyes, LNP compositions were prepared containing 2 mM of one of 25 dyes. After incubation for 4 days at 40° C., main peak mRNA purity was measured by RP-HPLC. Variance within this study was estimated from three independent sample replicates with no dye (Sample IDs D0a, D0b and D0c as shown in Table 4) or with 2 mM methylene blue (Sample IDs D1a, D1b and D1c as shown in Table 4). […] The main peak purity measured in each mRNA-LNP formulation, as well as its difference relative to the no dye controls is shown in Table 4. Positive differences relative to no dye represent improvements in mRNA stability, and negative differences represent worsened mRNA stability.

[2] = tested on: lipid nanoparticles (LNP); experiment: Permeation of phenothiazinium dyes into LNP and binding to encapsulated mRNA; settings: optical spectroscopic studies, Cryo-EM, DLS, isothermal titration calorimetry
Text: This example describes phenothiazinium dyes which interact with mRNA and their impact on LNP formulations. […] These interpretations were made based on extensive optical spectroscopic studies, Cryo-EM, dynamic light scattering (DLS) and isothermal titration calorimetry studies.

[3] = tested on: mRNA-LNP; experiment: Conventional antioxidants versus methylene blue on mRNA-LNP stability; settings: 2 mM KDS, 5 mM KDS or 5 mM methionine, presence or absence of 2 mM methylene blue
Experimental: This example discusses the effects of conventional pharmaceutical antioxidants on mRNA stability. To evaluate the effects conventional pharmaceutical antioxidants might have on mRNA stability relative to methylene blue, a direct comparative study was performed between methionine, potassium metabisulfite (KDS) and methylene blue. mRNA purity was measured after incubation of mRNA-LNP compositions with no additive, or with 2 mM KDS, 5 mM KDS, or 5 mM methionine, in the presence or absence of 2 mM methylene blue.

Row | Compound | Main Peak Purity after 4 days at 40° C. (%) [1] [%] | Difference relative to No Dye [1] [%] | stabilization effect on mRNA in LNP [1] | permeation of lipid nanoparticles and binding to encapsulated mRNA [2] | stabilization effect on mRNA purity [3]
1 | O=C(O)c1ccccc1-c1c2cc([N+](=O)[O-])c(=O)c(Br)c-2oc2c(Br)c(O)c([N+](=O)[O-])cc12 [Eosin B] | 78.00 | 3 |  |  | 
2 | CCN(CC)c1ccc2nc3c4ccccc4c(=N)cc-3oc2c1 [Nile Blue A] | 70.75 | −4 |  |  | 
3 | Leucomethylene Blue (mesylate) | 89.46 | 14 | stabilization effects similar to that of methylene blue |  | 
4 | CN(C)c1ccc2nc3ccc(N)cc3[s+]c2c1 [Azure A chloride] | 90.36 | 15 | stabilization effects similar to that of methylene blue | can permeate lipid nanoparticles (LNP) and bind to encapsulated mRNA without altering the gross structure of the LNP | 
5 | O=S([O-])S(=O)(=O)[O-].[K+].[K+] [KDS, potassium metabisulfite] |  |  |  |  | Neither KDS nor methionine showed any stabilization effect
6 | CCNc1cc2[s+]c3cc(NCC)c(C)cc3nc2cc1C [New methylene blue N] | 68.61 | −6 |  |  | 
7 | CCN(CC)c1ccc2nc3c4ccccc4c(=O)cc-3oc2c1 [Nile Red] | 77.56 | 3 |  |  | 
8 | Cc1cc2nc3ccc(=[N+](C)C)cc-3[nH]c2cc1N [Neutral Red] | 59.34 | −16 |  |  | 
9 | Oc1cc2c(cc1O)[C@@H]1c3ccc(O)c(O)c3OC[C@]1(O)C2 [Hematoxylin] | 39.82 | −35 |  |  | 
10 | CNc1ccc2nc3ccc(=[N+](C)C)cc-3sc2c1 [Azure B] | 90.16 | 15 | stabilization effects similar to that of methylene blue | can permeate lipid nanoparticles (LNP) and bind to encapsulated mRNA without altering the gross structure of the LNP | 
11 | Bromophenol Blue sodium salt | 35.53 | −39 |  |  | 
12 | CN(C)c1ccc2cc3ccc(=[N+](C)C)cc-3oc2c1.[Cl-] [Pyronin Y] | 68.68 | −6 |  |  | 
13 | Cc1c(C(=O)O)c(O)cc2c1C(=O)c1c(O)c(C3O[C@H](CO)[C@@H](O)[C@H](O)[C@H]3O)c(O)c(O)c1C2=O (stereo in doubt) [Carmine] | 74.27 | −1 |  |  | 
14 | CSCC[C@H](N)C(=O)O [methionine] |  |  |  |  | Neither KDS nor methionine showed any stabilization effect
15 | CN(C)c1ccc2cc3ccc(N(C)C)cc3nc2c1 [Acridine Orange hydrochloride hydrate] | 69.92 | −5 |  |  | 
16 | Cc1cc2nc3ccc(N(C)C)cc3[s+]c2cc1N [Toluidine Blue O] | 74.66 | 0 |  |  | 
17 | CN(C)c1ccc(C(=C2C=CC(=[N+](C)C)C=C2)c2ccc(N(C)C)cc2)cc1 [Crystal Violet] | 24.79 | −50 |  |  | 
18 | O=[N+]([O-])[O-].[Ag+] [Silver nitrate (0.1 N), Silver nitrate] | 77.90 | 3 |  |  | 
19 | Cc1cc2nc3cc(C)c(N)cc3[n+](-c3ccccc3)c2cc1N [Safranin O] | 89.14 | 14 | stabilization effects similar to that of methylene blue |  | 
